From ChEMBL document CHEMBL1201862, “PubChem BioAssay data set” (2004)
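The compound was tested at five concentrations on cells cultured in 96-well plates, with a 48-hour exposure period. GI50: concentration for 50% inhibition of growth.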 Activity calls are given as the source filed them. No stated cut-off is given here; in the data, active = GI50 up to about 1.1 µM and inactive = higher.

Experiments:
Assay in all cases: NCI-60 cell line screen, 48 h
[1] = system: A498
[2] = system: UO-31
[3] = system: M14
[4] = system: K562
[5] = system: NCI/ADR-RES
[6] = system: PC-3
[7] = system: KM-20L2
[8] = system: UACC-257
[9] = system: OVCAR-4
[10] = system: OVCAR-8
[11] = system: SK-OV-3
[12] = system: COLO 205
[13] = system: Malme-3M
[14] = system: SNB-75
[15] = system: MDA-N
[16] = system: HL-60
[17] = system: SR
[18] = system: HOP-92
[19] = system: NCI-H522
[20] = system: EKVX

Row | SMILES | GI50 [1] | GI50 [2] | GI50 [3] | GI50 [4] | GI50 [5] | GI50 [6] | GI50 [7] | GI50 [8] | GI50 [9] | GI50 [10] | GI50 [11] | GI50 [12] | GI50 [13] | GI50 [14] | GI50 [15] | GI50 [16] | GI50 [17] | GI50 [18] | GI50 [19] | GI50 [20]
1 | Nc1nc(N)c2cc(CNc3ccc(C(=O)NC(CC(=O)O)C(=O)O)c(Cl)c3)ccc2n1 (centres undefined) | 0.171 µM (active) | 0.918 µM (active) | 0.0743 µM (active) | < 0.0192 µM (active) | < 0.0282 µM (active) | 10.1 µM (inactive) | 0.117 µM (active) | 0.259 µM (active) | 153 µM (inactive) | 0.032 µM (active) | 6.82 µM (inactive) | 0.861 µM (active) | 0.383 µM (active) | > 20.8 µM (inactive) | < 0.01 µM (active) | 14.3 µM (inactive) | 0.05 µM (active) | > 87.5 µM (inactive) | 0.502 µM (active) | 
2 | CCOC(=O)CSc1nnc(CSc2nc(-c3ccccc3)c(-c3ccccc3)[nH]2)n1-c1ccccc1 | 17.9 µM (inactive) | 18.2 µM (inactive) | > 45 µM (inactive) | > 100 µM (inactive) | 61.9 µM (inactive) | 20.7 µM (inactive) | 27.7 µM (inactive) | 29.3 µM (inactive) | 22.1 µM (inactive) | 18.7 µM (inactive) | 23.4 µM (inactive) | > 58.2 µM (inactive) | > 69.2 µM (inactive) | > 100 µM (inactive) | 75.3 µM (inactive) | 49.5 µM (inactive) | 39.4 µM (inactive) | 40.4 µM (inactive) | > 87.7 µM (inactive) | > 100 µM (inactive)
3 | COC(=O)NC1C(C)OC(OC2C/C=C(/C)C3C=CC4C(OC5CC(OC6CC(O)C(OC7CC(O)C(OC)C(C)O7)C(C)O6)C(O)C(C)O5)C(C)CC(C)C4C3(C)C(=O)C3=C(O)C4(CC(C)C(CO)=CC4/C=C\2C)OC3=O)CC1(C)[N+](=O)[O-] (centres undefined) | 15.6 µM (inactive) | 17.1 µM (inactive) | 9.29 µM (inactive) | 4.41 µM (inactive) | 69.5 µM (inactive) | 15.9 µM (inactive) | 17.1 µM (inactive) | 13.9 µM (inactive) | 3.48 µM (inactive) | 9.38 µM (inactive) | 12 µM (inactive) | 5.16 µM (inactive) | 7.93 µM (inactive) | 19.7 µM (inactive) | 9.55 µM (inactive) | 4.51 µM (inactive) | 14.8 µM (inactive) | 5.45 µM (inactive) | 5.69 µM (inactive) | 5.26 µM (inactive)
